According to US20110008461A1 (priority 2008, published 2011):
Several values for one entry are separate records, joined by “and”; a condition that tells them apart may be missing. Identical values can stand only once. Counter-ions that a name gives are not always drawn. Like-named read-outs stand apart in the source and are kept apart here. Marks after values point to notes of the source that are not given here. One block for each molecule: values may come before it.

Legend:
avian liver mPEPCK = biological target: T1, avian liver mPEPCK (Gallus gallus, UniProt P21642); conditions: with respect to OAA; cited from earlier work
T1 sequence (P21642 34-641): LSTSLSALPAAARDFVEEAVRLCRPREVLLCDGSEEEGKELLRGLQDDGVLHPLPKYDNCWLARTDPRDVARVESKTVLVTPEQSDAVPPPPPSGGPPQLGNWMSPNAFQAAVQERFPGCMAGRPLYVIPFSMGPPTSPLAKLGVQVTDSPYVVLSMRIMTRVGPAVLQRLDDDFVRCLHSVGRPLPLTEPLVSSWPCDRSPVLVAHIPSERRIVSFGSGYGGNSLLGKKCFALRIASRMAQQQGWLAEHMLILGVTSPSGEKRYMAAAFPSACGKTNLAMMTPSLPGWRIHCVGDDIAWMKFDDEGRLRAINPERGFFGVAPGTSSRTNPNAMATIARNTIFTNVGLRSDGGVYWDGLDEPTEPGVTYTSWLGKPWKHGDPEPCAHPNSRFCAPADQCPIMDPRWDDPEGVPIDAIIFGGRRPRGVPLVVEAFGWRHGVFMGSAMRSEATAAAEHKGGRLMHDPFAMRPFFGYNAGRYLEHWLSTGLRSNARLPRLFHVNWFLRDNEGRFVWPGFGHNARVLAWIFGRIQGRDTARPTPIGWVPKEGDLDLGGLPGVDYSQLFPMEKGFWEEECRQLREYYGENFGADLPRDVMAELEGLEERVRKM

[1] = biological target: T2, Rat Liver Cytosolic Phosphoenolpyruvate Carboxykinase (Rattus norvegicus, UniProt P07379); experiment: Continuous spectrophotometric PEPCK inhibition assay coupled to malate dehydrogenase (preliminary screen, inhibition patterns, Dixon plots); conditions: for Inhibition of PEPCK (in words): against PEP;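 for all read-outs here: PEPCK activity followed continuously via malate dehydrogenase coupling, where OAA reduction consumes NADH, seen as falling absorbance at 340 nm, run at 35 °C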
T2 sequence (P07379 1-622): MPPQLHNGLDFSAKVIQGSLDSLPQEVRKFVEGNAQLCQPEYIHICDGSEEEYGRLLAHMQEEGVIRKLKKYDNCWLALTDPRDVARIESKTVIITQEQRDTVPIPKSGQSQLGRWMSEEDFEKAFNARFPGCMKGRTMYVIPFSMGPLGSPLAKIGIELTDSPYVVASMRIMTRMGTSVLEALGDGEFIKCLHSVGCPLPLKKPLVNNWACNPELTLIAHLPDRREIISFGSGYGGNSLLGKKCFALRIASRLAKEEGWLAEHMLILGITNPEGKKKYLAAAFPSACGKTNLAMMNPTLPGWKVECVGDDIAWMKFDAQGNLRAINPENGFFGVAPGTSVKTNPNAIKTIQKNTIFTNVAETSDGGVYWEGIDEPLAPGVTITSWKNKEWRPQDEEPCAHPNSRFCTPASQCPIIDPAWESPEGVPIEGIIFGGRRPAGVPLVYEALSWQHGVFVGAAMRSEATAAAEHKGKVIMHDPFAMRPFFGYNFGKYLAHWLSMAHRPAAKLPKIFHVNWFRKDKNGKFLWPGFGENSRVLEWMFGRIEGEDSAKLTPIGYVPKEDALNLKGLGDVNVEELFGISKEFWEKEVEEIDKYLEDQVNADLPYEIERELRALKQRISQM
Experimental: TES (pH 7.2), 7.5% glycerol (v:v), 0.2 mM EDTA.
The inhibition of PEPCK by various compounds was evaluated using a continuous spectrophotometric assay in which the coupling enzyme, malate dehydrogenase, reduced OAA to malate concomitant with the oxidation of NADH to NAD^+. The decrease in absorbance at 340 nm was monitored using a Beckman DU-70 Spectrophotometer equipped with a temperature controller. The standard 1-mL reaction mixture for the production of OAA contained 56 mM HEPES-KOH buffer (pH 7.0), 1 mM IDP (or alternatively, 0.1 mM GDP), 23 U malate dehydrogenase (1 unit of malate dehydrogenase is defined as 1 mole malate produced/min/mg protein), 0.25 mM NADH, 2.3 mM MnCl2, and 48 mM NaHCO3. […] All assay components except PEPCK were preincubated in the cuvette for 3 min at 35° C., the standard assay temperature.
The kinetic parameters for the inhibition studies were best fit to the equations for competitive inhibition (Eq. 1) and noncompetitive inhibition (Eq. 2), using the computer program and nomenclature of Cleland (Cleland, W. W. (1979) Statistical analysis of enzyme kinetic data. Methods Enzymol 63, 103-138).
v=VA/[K(1+1/Kis)+A] (Eq. 1)
v=VA/[K(1/Kis)+A(1+1/Kii)] (Eq. 2)
The parameters are defined as follows: v is the initial velocity, V is the maximal rate of product formation in the absence of inhibitor, A is the concentration of the variable substrate, K is the apparent Michaelis constant for the varied substrate, and Kis and Kii are the inhibition constants.

cytosolic PEPCK = biological target: T3, cytosolic PEPCK (Rattus norvegicus, UniProt P07379); experiment: Kinetic data for MPA binding to the allosteric site of PEPCK; format: biochemical
T3 sequence (P07379 1-622): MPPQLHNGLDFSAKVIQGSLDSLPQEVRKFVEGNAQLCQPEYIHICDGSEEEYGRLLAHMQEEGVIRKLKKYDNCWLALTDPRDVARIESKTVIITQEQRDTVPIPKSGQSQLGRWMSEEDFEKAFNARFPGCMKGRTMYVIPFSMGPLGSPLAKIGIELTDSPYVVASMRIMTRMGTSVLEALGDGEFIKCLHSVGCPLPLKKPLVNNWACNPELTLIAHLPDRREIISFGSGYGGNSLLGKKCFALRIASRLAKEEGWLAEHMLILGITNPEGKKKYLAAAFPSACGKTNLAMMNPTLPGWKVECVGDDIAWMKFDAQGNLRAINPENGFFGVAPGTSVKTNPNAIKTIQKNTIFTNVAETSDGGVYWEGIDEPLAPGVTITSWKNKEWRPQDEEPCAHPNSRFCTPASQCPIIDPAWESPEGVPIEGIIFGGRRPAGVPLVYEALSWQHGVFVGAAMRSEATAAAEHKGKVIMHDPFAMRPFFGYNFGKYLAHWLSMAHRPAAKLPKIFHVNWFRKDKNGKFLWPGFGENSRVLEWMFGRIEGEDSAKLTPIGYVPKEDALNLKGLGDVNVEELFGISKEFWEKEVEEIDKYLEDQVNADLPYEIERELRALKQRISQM

[2] = substrate: C=C(OP(=O)(O)O)C(=O)O; experiment: cells, lysate or membranes named; conditions: other: substrate, determined under the same assay conditions
[3] = analogue 6 mM, PEP 40 μM, preliminary screen, average of two PEPCK preparations
[4] = from Dixon plots using two PEP concentrations
[5] = analogue 1.5 mM, PEP 40 μM, preliminary screen, average of two PEPCK preparations
[6] = analogue 3 mM, PEP 40 μM, preliminary screen, average of two PEPCK preparations

Molecule: O=C(O)C(=O)CS(=O)(=O)O [β-sulfopyruvate]
Pattern of Inhibition (avian liver mPEPCK): competitive

Molecule: O=S(=O)(O)CCS(=O)(=O)O [Compound 32, 1,2-Ethanedisulfonate]
% Activity Remaining [1, 3]: 42^e % | Ki [1, 4]: ~3000 µM | Ki ([1]; from Dixon plots using two PEP concentrations, listed as 1,2-Ethanedisulfonate (32)): 3000 µM

% Activity Remaining [1, 5]: 108^f %
Molecule: N[C@@H](COP(=O)(O)O)C(=O)O [Compound 21, Serine phosphate]

Molecule: O=C(O)CC(C(=O)O)S(=O)(=O)O (stereo not shown) [Compound 4, Sulfosuccinate]
% Activity Remaining [1]: 55^c % | Ki [1]: ~3300 µM and 3300 µM

Molecule: NC(CCCP(=O)(O)O)C(=O)O (stereo not shown) [Compound 20, 2-Amino-5-phosphonovalerate]
% Activity Remaining [1]: 98^f %

Molecule: O=[N+]([O-])c1ccc(OP(=O)(O)O)cc1 [Compound 35, p-Nitrophenylphosphate]
% Activity Remaining [1, 6]: 103^c %

Molecule: O=P(O)(O)CCP(=O)(O)O [Compound 30, 1,2-Ethanediphosphonate]
Pattern of Inhibition ([1]; PEP varied substrate): competitive | Ki ([1]; PEP varied substrate, Cleland kinetics program, 35° C., pH 7.0): 5100 µM | Pattern of Inhibition ([1]; PEP varied substrate, listed as 1,2-Ethanediphosphonate (30)): Competitive | % Activity Remaining [1, 3]: 96^e %

Molecule: NC(CP(=O)(O)O)C(=O)O (stereo not shown) [Compound 18, 2-Amino-3-phosphonopropionate]
Inhibition of PEPCK (in words) [1]: fails to inhibit | % Activity Remaining [1, 6]: 94^c %

Ki (cytosolic PEPCK; read-out: apparent affinity): ~100 µM | Pattern of Inhibition (cytosolic PEPCK; versus nucleotide): competitive with nucleotide binding
Molecule: O=C(O)c1ncccc1S [MPA, 3-mercaptopicolinic acid]

Inhibition of PEPCK (in words) [1]: did not inhibit | % Activity Remaining [1, 3]: 83^e %
Molecule: O=C(O)/C=C/C(=O)O [Compound 6, Fumarate]

Molecule: O=C(O)CCC(=O)O [Compound 3, Succinate]
% Activity Remaining [1, 6]: 91^c % | Ki [1, 4]: > 8000 µM

Molecule: Threonine phosphate [Compound 22]
% Activity Remaining [1, 6]: 97^c %

% Activity Remaining [1, 6]: 108^c %
Molecule: C[C@@H]1O[C@@H]1P(=O)(O)O [Compound 33, Phosphomycin]

Pattern of Inhibition ([1]; PEP varied substrate): noncompetitive | Pattern of Inhibition ([1]; PEP varied substrate, listed as Methanedisulfonate (31)): Noncompetitive | % Activity Remaining [1, 5]: 4^f % | Ki ([1]; read-out: Ki, intercept effect (Kii), noncompetitive, PEP varied substrate): 168 ± 25 µM | Ki ([1]; read-out: Ki, slope effect (Kis), noncompetitive, PEP varied substrate, Cleland kinetics program): 27 ± 3 µM
Molecule: O=S(=O)(O)CS(=O)(=O)O [Compound 31, Methanedisulfonate]

Molecule: O=C(O)[C@H](O)[C@@H](O)[C@H](O)[C@H](O)COP(=O)(O)O [Compound 16, 6-phosphogluconate]
Inhibition of PEPCK (in words) [1]: does not inhibit | % Activity Remaining [1, 6]: 117^c %

Inhibition of PEPCK (in words) [1]: noninhibitory | % Activity Remaining [1, 6]: 110^c %
Molecule: O=C(O)[C@@H](CO)OP(=O)(O)O [Compound 14, 2-D-Phosphoglycerate]

Molecule: NC(CCP(=O)(O)O)C(=O)O (stereo not shown) [Compound 19, 2-Amino-4-phosphonobutyrate]
% Activity Remaining [1, 6]: 104^c %

B1: Rat Liver Cytosolic Phosphoenolpyruvate Carboxykinase (Rattus norvegicus) (protein)
chain: MPPQLHNGLDFSAKVIQGSLDSLPQEVRKFVEGNAQLCQPEYIHICDGSEEEYGRLLAHMQEEGVIRKLKKYDNCWLALTDPRDVARIESKTVIITQEQRDTVPIPKSGQSQLGRWMSEEDFEKAFNARFPGCMKGRTMYVIPFSMGPLGSPLAKIGIELTDSPYVVASMRIMTRMGTSVLEALGDGEFIKCLHSVGCPLPLKKPLVNNWACNPELTLIAHLPDRREIISFGSGYGGNSLLGKKCFALRIASRLAKEEGWLAEHMLILGITNPEGKKKYLAAAFPSACGKTNLAMMNPTLPGWKVECVGDDIAWMKFDAQGNLRAINPENGFFGVAPGTSVKTNPNAIKTIQKNTIFTNVAETSDGGVYWEGIDEPLAPGVTITSWKNKEWRPQDEEPCAHPNSRFCTPASQCPIIDPAWESPEGVPIEGIIFGGRRPAGVPLVYEALSWQHGVFVGAAMRSEATAAAEHKGKVIMHDPFAMRPFFGYNFGKYLAHWLSMAHRPAAKLPKIFHVNWFRKDKNGKFLWPGFGENSRVLEWMFGRIEGEDSAKLTPIGYVPKEDALNLKGLGDVNVEELFGISKEFWEKEVEEIDKYLEDQVNADLPYEIERELRALKQRISQM
Km [2]: 82 µM and 89 µM
